Reference: patent US7417156B2, “Orally active, antimalarial, anticancer, artemisinin-derived trioxane dimers” (Johns Hopkins University, priority 2002, dated 2008)
Like-named read-outs stand apart in the source and are kept apart here.

How the values were obtained:
NCI-H322M = type: cell-based
HCT-15 = assay: NCI 60 cell line panel screen (SRB); type: cell-based, human
HCT-116 = assay: NCI 60 cell line panel screen (SRB); type: cell-based, human
ACHN = assay: NCI 60 cell line panel screen (SRB); type: cell-based, human
BT-549 = assay: NCI 60 cell line panel screen (SRB); type: cell-based, human
NCI/ADR-RES = assay: NCI 60 cell line panel screen (SRB); type: cell-based, human
OVCAR-3 = assay: NCI 60 cell line panel screen (SRB); type: cell-based, human
A549/ATCC = assay: NCI 60 cell line panel screen (SRB); type: cell-based, human
M14 = assay: NCI 60 cell line panel screen (SRB); type: cell-based, human
MDA-MB231/ATCC = assay: NCI 60 cell line panel screen (SRB); type: cell-based, human
IGROVI = assay: NCI 60 cell line panel screen (SRB); type: cell-based, human
HT29 = assay: NCI 60 cell line panel screen (SRB); type: cell-based, human
MDA-MB-435 = assay: NCI 60 cell line panel screen (SRB); type: cell-based, human; conditions: MDA-MB-435 (Breast Cancer)
PC-3 = assay: NCI 60 cell line panel screen (SRB); type: cell-based, human
[1] = system: chloroquine-sensitive P. falciparum (NF54); assay: Antimalarial activity in vitro, [3H]hypoxanthine incorporation; type: cell-based
60 cell line panel = type: cell-based
MCF7 = assay: NCI 60 cell line panel screen (SRB); type: cell-based, human
UO-31 = assay: NCI 60 cell line panel screen (SRB); type: cell-based, human
MALME-3M = assay: NCI 60 cell line panel screen (SRB); type: cell-based, human; conditions: MALME-3M (Melanoma)
NCI-H522 = assay: NCI 60 cell line panel screen (SRB); type: cell-based, human
SF-268 = assay: NCI 60 cell line panel screen (SRB); type: cell-based, human
[2] = mean value over the 60 cell line panel

## CC1CCC2C(C)C(CC(O)(CO)CC3OC4OC5(C)CCC6C(C)CCC(C3C)C46OO5)OC3OC4(C)CCC1C32OO4 (centres unmarked) [Compound 5, bis-trioxane vicinal diol]
NCI-H322M; NCI-H322M (Non-Small Cell Lung Cancer), LC50: PG=−50
  Log10LC50: −4.16 log10M
NCI-H322M; NCI-H322M (Non-Small Cell Lung Cancer), TGI: PG=0
  Log10TGI50: −4.44 log10M
NCI-H322M; Non-Small Cell Lung Cancer, NCI-H322M
  Log10GI50: −4.71
HCT-15; Colon Cancer, HCT-15
  Log10GI50: −5.28
HCT-15; HCT-15 (Colon Cancer), LC50: PG=−50
  Log10LC50: −4.03 log10M
HCT-15; HCT-15 (Colon Cancer), TGI: PG=0
  Log10TGI50: −4.53 log10M
HCT-116; Colon Cancer, HCT-116
  Log10GI50: −4.72
HCT-116; HCT-116 (Colon Cancer), LC50: PG=−50
  Log10LC50: >−4.00 log10M
HCT-116; HCT-116 (Colon Cancer), TGI: PG=0
  Log10TGI50: >−4.00 log10M
ACHN; ACHN (Renal Cancer), LC50: PG=−50
  Log10LC50: 4.47 log10M
ACHN; ACHN (Renal Cancer), TGI: PG=0
  Log10TGI50: <−8.00 log10M
ACHN; Renal Cancer, ACHN
  Log10GI50: <−8.00
BT-549; BT-549 (Breast Cancer), LC50: PG=−50
  Log10LC50: −4.30 log10M
BT-549; BT-549 (Breast Cancer), TGI: PG=0
  Log10TGI50: −4.81 log10M
BT-549; Breast Cancer, BT-549
  Log10GI50: <−8.00
NCI/ADR-RES; Breast Cancer, NCI/ADR-RES
  Log10GI50: −4.75
NCI/ADR-RES; NCI/ADR-RES (Breast Cancer), LC50: PG=−50
  Log10LC50: >−4.00 log10M
OVCAR-3; OVCAR-3 (Ovarian Cancer), LC50: PG=−50
  Log10LC50: >−4.00 log10M
OVCAR-3; OVCAR-3 (Ovarian Cancer), TGI: PG=0
  Log10TGI50: −4.45 log10M
OVCAR-3; Ovarian Cancer, OVCAR-3
  Log10GI50: −5.09
A549/ATCC; A549/ATCC (Non-Small Cell Lung Cancer), LC50: PG=−50
  Log10LC50: −4.11 log10M
A549/ATCC; A549/ATCC (Non-Small Cell Lung Cancer), TGI: PG=0
  Log10TGI50: −4.82 log10M
A549/ATCC; Non-Small Cell Lung Cancer, A549/ATCC
  Log10GI50: −7.59
M14; M14 (Melanoma), LC50: PG=−50
  Log10LC50: >−4.00 log10M
M14; M-14 (Melanoma), TGI: PG=0
  Log10TGI50: >−4.00 log10M
M14; Melanoma, M14
  Log10GI50: −4.59
MDA-MB231/ATCC; Breast Cancer, MDA-MB231/ATCC
  Log10GI50: −4.99
MDA-MB231/ATCC; MDA-MB231/ATCC (Breast Cancer), LC50: PG=−50
  Log10LC50: −4.15 log10M
MDA-MB231/ATCC; MDA-MB231/ATCC (Breast Cancer), TGI: PG=0
  Log10TGI50: −4.57 log10M
IGROVI; IGROVI (Ovarian Cancer), LC50: PG=−50
  Log10LC50: −4.17 log10M
IGROVI; IGROVI (Ovarian Cancer), TGI: PG=0
  Log10TGI50: −4.57 log10M
IGROVI; Ovarian Cancer, IGROVI
  Log10GI50: −4.97
HT29; Colon Cancer, HT29
  Log10GI50: <−8.00
HT29; HT29 (Colon Cancer), LC50: PG=−50
  Log10LC50: >−4.00 log10M
HT29; HT29 (Colon Cancer), TGI: PG=0
  Log10TGI50: >−4.00 log10M
MDA-MB-435; LC50: PG=−50
  Log10LC50: −4.09 log10M
MDA-MB-435; TGI: PG=0
  Log10TGI50: −4.54 log10M
PC-3; PC-3 (Prostate Cancer), LC50: PG=−50
  Log10LC50: >−4.00 log10M
PC-3; PC-3 (Prostate Cancer), TGI: PG=0
  Log10TGI50: −4.49 log10M
PC-3; Prostate Cancer, PC-3
  Log10GI50: <−8.00
[1]
  IC50: below one nM
  antimalarial potency in vitro relative to artemisinin: 10 times
[1]; Table I, NF54 strain, read-out: IC50
  IC50: 590 pM
60 cell line panel
  Log10GI50 Delta: 2.03
  Log10GI50 Range: 3.47
60 cell line panel; 60 cell line panel
  Log10LC50 Delta: 0.37
  Log10LC50 Range: 0.47
  Log10TGI50 Delta: 3.50
  Log10TGI50 Range: 4.00
60 cell line panel; human cancer cell lines in general
  growth inhibition and cytotoxicity in words: strongly inhibitory but not cytotoxic
60 cell line panel; leukemia cell line RPM 1-8226, melanoma cell line SK-MEL-5, renal cancer cell line ACHN
  growth inhibition in words: selectively and strongly inhibitory
60 cell line panel; mean over panel
  Log10GI50 MG MID: −5.97
60 cell line panel; [2]
  Log10LC50 MG MID: −4.09 log10M
  Log10TGI50 MG MID: −4.50 log10M
MCF7; Breast Cancer, MCF7
  Log10GI50: <−8.00
MCF7; MCF7 (Breast Cancer), LC50: PG=−50
  Log10LC50: −4.22 log10M
MCF7; MCF7 (Breast Cancer), TGI: PG=0
  Log10TGI50: −4.88 log10M
UO-31; Renal Cancer, UO-31
  Log10GI50: −7.38
UO-31; UO-31 (Renal Cancer), LC50: PG=−50
  Log10LC50: −4.26 log10M
UO-31; UO-31 (Renal Cancer), TGI: PG=0
  Log10TGI50: −4.68 log10M
MALME-3M; LC50: PG=−50
  Log10LC50: −4.11 log10M
MALME-3M; TGI: PG=0
  Log10TGI50: −4.50 log10M
NCI-H522; NCI-H522 (Non-Small Cell Lung Cancer), TGI: PG=0
  Log10TGI50: −4.59 log10M
NCI-H522; NCI-H-522 (Non-Small Cell Lung Cancer), LC50: PG=−50
  Log10LC50: −4.17 log10M
NCI-H522; Non-Small Cell Lung Cancer, NCI-H522
  Log10GI50: −7.33
SF-268; CNS Cancer, SF-268
  Log10GI50: −4.94
SF-268; SF-268 (CNS Cancer), LC50: PG=−50
  Log10LC50: −4.12 log10M
SF-268; SF-268 (CNS Cancer), TGI: PG=0
  Log10TGI50: −4.53 log10M
